This note sets out measurements from patent US9133235B2, “Macrocyclic antagonists of the motilin receptor for treatment of gastrointestinal dysmotility disorders” (Ocera Therapeutics, Inc., priority 2006, dated 2015).

The assay concerns the target human motilin receptor (Homo sapiens, UniProt O43193). Briefly: Competitive radioligand binding assay (motilin receptor). Also on record: purchased PerkinElmer (SignalScreen) 6110544; host or cells: CHO cells, stably transfected; membranes. Particulars: for Ki: [125I]-motilin competition, membranes of CHO cells with human motilin receptor, read-out: Ki. Here is the method:
A. Competitive Radioligand Binding Assay (Motilin Receptor)
The competitive binding assay at the human motilin receptor was carried out analogously to assays described in the literature.
• Membranes were prepared from CHO cells stably transfected with the human motilin receptor and utilized at a quantity of 1.5 μg/assay point. [PerkinElmer™ SignalScreen Product #6110544] • [^125I]-Motilin (PerkinElmer, #NEX-378); final concentration: 0.04-0.06 nM • Motilin (Bachem™, #H-4385); final concentration: 1 μM • Multiscreen Harvest plates-GF/B (Millipore™, #MAHFB1H60) • Deep-well polypropylene titer plate (Beckman Coulter™, #267006) • TopSeal-A (PerkinElmer, #6005185) • Bottom seal (Millipore, #MATAH0P00) • MicroScint-0 (PerkinElmer, #6013611) • Binding Buffer: 50 mM Tris-HCl (pH 7.4), 10 mM MgCl2, 1 mM EDTA, 0.1% BSA Assay Volumes: • 150 μL of membranes diluted in binding buffer • 10 μL of compound diluted in binding buffer • 10 μL of radioligand ([^125I]-Motilin) diluted in binding buffer Final Test Concentrations (N=11) for Compounds: • 10, 5.0, 2.0, 1.0, 0.50, 0.20, 0.10, 0.050, 0.020, 0.010, 0.0050 μM. Compound Handling:
Compounds were provided frozen on dry ice at a stock concentration of 10 mM diluted in 100% DMSO and stored at −20° C. until the day of testing. On the test day, compounds were allowed to thaw at room temperature and than diluted in assay buffer according to the desired test concentrations. Under these conditions, the maximum final DMSO concentration in the assay was 0.5%.
In deep-well plates, diluted cell membranes (1.5 μg/mL) are combined with 10 μL of either binding buffer (total binding, N=5), 1 μM motilin (non-specific binding, N=3) or the appropriate concentration of test compound. The reaction is initiated by addition of 10 μL of [^125I]-motilin (final conc. 0.04-0.06 nM) to each well. Plates are sealed with TopSeal-A, vortexed gently and incubated at room temperature for 2 hours. The reaction is arrested by filtering samples through pre-soaked (0.3% polyethyleneimine, 2 h) Multiscreen Harvest plates using a Tomtec Harvester, washed 9 times with 500 μL of cold 50 mM Tris-HCl (pH 7.4), and than plates are air-dried in a fumehood for 30 minutes. A bottom seal is applied to the plates prior to the addition of 25 μL of MicroScint-0 to each well. Plates are than sealed with TopSeal-A and counted for 30 sec per well on a TopCount Microplate Scintillation and Luminescence Counter (PerkinElmer) where results are expressed as counts per minute (cpm).
Data are analyzed by GraphPad™ Prism® (GraphPad Software, San Diego, Calif.) using a variable slope non-linear regression analysis.
[formula] where total and non-specific binding represent the cpm obtained in the absence or presence of 1 μM motilin, respectively.

Chain of human motilin receptor (O43193 whole entry): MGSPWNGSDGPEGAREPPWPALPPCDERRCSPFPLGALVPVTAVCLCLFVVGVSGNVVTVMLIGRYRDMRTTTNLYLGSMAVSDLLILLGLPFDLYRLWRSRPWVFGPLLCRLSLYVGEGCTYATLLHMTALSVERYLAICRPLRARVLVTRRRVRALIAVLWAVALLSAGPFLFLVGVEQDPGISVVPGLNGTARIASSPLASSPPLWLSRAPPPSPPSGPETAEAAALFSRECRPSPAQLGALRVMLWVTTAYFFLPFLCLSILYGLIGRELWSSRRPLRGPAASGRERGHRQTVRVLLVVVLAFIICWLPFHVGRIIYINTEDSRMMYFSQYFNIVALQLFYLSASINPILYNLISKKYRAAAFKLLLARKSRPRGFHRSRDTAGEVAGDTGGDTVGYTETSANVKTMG

For `CC(C)[C@H]1NC(=O)[C@@H](Cc2cccc(Cl)c2)NCCOc2ccccc2CCCNC(=O)[C@H](CCNC(=N)N)NC1=O` [Compound 507], the inhibition constant Ki – broadly, a measure of affinity in units of concentration, obtained from inhibition or displacement – is at most 100 nM.

For `CC(C)[C@H]1NC(=O)[C@@H](Cc2cccc(Cl)c2)NCCOc2ccccc2CCCNC(=O)[C@H](CNc2nccs2)NC1=O` [Compound 509], the Ki is at most 100 nM.

Consider `CC(C)[C@H]1NC(=O)[C@@H](Cc2cccc(F)c2)NCCOc2ccccc2C[C@@H](C)CNC(=O)[C@H](CN(C)C)NC1=O` [Compound 514], for which the Ki was at most 1000 nM.

As to `CC(C)[C@H]1NC(=O)[C@@H](Cc2cccc(Cl)c2)NCCOc2ccccc2CCCNC(=O)[C@H](CC(=N)N)NC1=O` [Compound 518], the Ki was at most 100 nM.

For `CC(C)[C@H]1NC(=O)[C@@H](Cc2cccc(Cl)c2)NCCOc2ccccc2CCCNC(=O)[C@H](CNC2=NCCCN2)NC1=O` [Compound 521], the Ki is at most 100 nM.

For the molecule `CC(C)[C@H]1NC(=O)[C@@H](Cc2cccc(Cl)c2)NCCOc2ccccc2CCCNC(=O)[C@H](CN/C(N)=N/C#N)NC1=O` [Compound 522], the inhibition constant (Ki) was at most 100 nM.

Regarding `CC(C)[C@H]1NC(=O)[C@@H](Cc2cccc(C(F)(F)F)c2)NCCOc2ccccc2CCCNC(=O)[C@H](Cn2nncc2CN)NC1=O` [Compound 523], the Ki was at most 100 nM.

`CC(C)[C@H]1NC(=O)[C@@H](Cc2cccc(C(F)(F)F)c2)NCCOc2ccccc2CCCNC(=O)[C@H](CNc2ncccn2)NC1=O` [Compound 524]: the inhibitory constant (Ki) is at most 100 nM.

Take `CC(C)[C@H]1NC(=O)[C@@H](Cc2cccc(C(F)(F)F)c2)NCCOc2ccccc2CCCNC(=O)[C@H](CN2CCOCC2)NC1=O` [Compound 525]: the Ki was at most 100 nM.

As to `Cc1cnnn1C[C@@H]1NC(=O)[C@@H](C(C)C)NC(=O)[C@@H](Cc2cccc(C(F)(F)F)c2)NCCOc2ccccc2CCCNC1=O` [Compound 526], the Ki was at most 100 nM.

Take `Cc1nnnn1C[C@@H]1NC(=O)[C@@H](C(C)C)NC(=O)[C@@H](Cc2cccc(C(F)(F)F)c2)NCCOc2ccccc2CCCNC1=O` [Compound 527]: the Ki was at most 100 nM.

Consider `Cc1nnn(C[C@@H]2NC(=O)[C@@H](C(C)C)NC(=O)[C@@H](Cc3cccc(C(F)(F)F)c3)NCCOc3ccccc3CCCNC2=O)c1C` [Compound 528], for which the Ki is at most 100 nM.

On to `CC(C)C[C@@H]1NC(=O)[C@@H](C(C)C)NC(=O)[C@@H](Cc2cccc(F)c2)N[C@@H](C)COc2ccccc2CCCNC1=O` [Compound 556], for which the inhibition constant (Ki) is at most 10 nM.

Turning to `CCC[C@@H]1NC(=O)[C@@H](CC)NC(=O)[C@@H](Cc2cccc(F)c2)N[C@@H](C)COc2ccccc2CCCNC1=O` [Compound 558], the Ki was at most 10 nM.

Take `CC(C)[C@H]1NC(=O)[C@@H](Cc2ccc(F)cc2)N[C@@H](C)COc2ccccc2CCCNC(=O)[C@H](CC2CC2)NC1=O` [Compound 559]: the Ki was at most 10 nM.

With `CCC[C@@H]1NC(=O)[C@@H](C(C)C)NC(=O)[C@@H](Cc2ccc(F)cc2)N[C@@H](C)COc2ccccc2CCCNC1=O` [Compound 560], the Ki is at most 10 nM.

In the case of `CCC[C@@H]1NC(=O)[C@@H](C(C)C)NC(=O)[C@@H](Cc2ccc(F)c(F)c2)N[C@@H](C)COc2ccccc2CCCNC1=O` [Compound 561], the Ki was at most 10 nM.

As for `CCC[C@@H]1NC(=O)[C@@H](C(C)C)NC(=O)[C@@H](Cc2cccc(OC)c2)N[C@@H](C)COc2ccccc2CCCNC1=O` [Compound 562], the inhibitory constant (Ki) was at most 10 nM.

As for `C[C@@H]1CNC(=O)[C@H](CC2CC2)NC(=O)[C@@H](C2CC2)NC(=O)[C@@H](Cc2cccc(F)c2)NCCOc2ccccc2C1` [Compound 566], the Ki is at most 10 nM.

With `CC(C)[C@H]1NC(=O)[C@@H](Cc2ccc(F)cc2)NCCOc2ccccc2C[C@H](C)CNC(=O)[C@H](CC2CC2)NC1=O` [Compound 567], the inhibition constant Ki is at most 10 nM.

Regarding `CCC[C@@H]1NC(=O)[C@@H](C(C)C)NC(=O)[C@@H](Cc2ccc(C(F)(F)F)cc2)NCCOc2ccccc2CCCNC1=O` [Compound 575], the Ki is at most 100 nM.

On to `CC(C)[C@H]1NC(=O)[C@@H](Cc2ccc(Cl)cc2)NCCOc2ccccc2CCCNC(=O)[C@H](CNS(C)(=O)=O)NC1=O` [Compound 576], for which the inhibitory constant (Ki) was at most 1000 nM.

Take `CC(C)[C@H]1NC(=O)[C@@H](Cc2ccc(Cl)cc2)NCCOc2ccccc2CCCNC(=O)[C@H](CNC(N)=O)NC1=O` [Compound 577]: the Ki is at most 1000 nM.

As for `CC(C)NC[C@@H]1NC(=O)[C@@H](C(C)C)NC(=O)[C@@H](Cc2ccc(O)cc2)NCCOc2ccccc2CCCNC1=O` [Compound 579], the Ki is at most 1000 nM.

On to `CC(C)NC[C@@H]1NC(=O)[C@@H](C(C)C)NC(=O)[C@@H](Cc2ccc(Cl)cc2)NCCOc2ccccc2CCCNC1=O` [Compound 581], for which the Ki was at most 100 nM.

Take `COc1ccc(C[C@H]2NCCOc3ccccc3CCCNC(=O)[C@H](CCO)NC(=O)[C@@H](C(C)C)NC2=O)cc1` [Compound 583]: the Ki was at most 1000 nM.

Regarding `CC(C)[C@H]1NC(=O)[C@@H](Cc2cccc(F)c2)NCCOc2ccccc2CCCNC(=O)[C@H](CC2CC2)NC1=O` [Compound 584], the Ki is at most 100 nM.

Turning to `CC(C)[C@H]1NC(=O)[C@@H](Cc2cccc(F)c2)NCCOc2ccccc2C[C@@H](C)CNC(=O)[C@H](CC2CC2)NC1=O` [Compound 587], the Ki is at most 100 nM.

Regarding `CC(C)[C@H]1NC(=O)[C@@H](Cc2cccc(F)c2)NCCOc2ccccc2C[C@H](C)CNC(=O)[C@H](CC2CC2)NC1=O` [Compound 588], the Ki was at most 10 nM.

Consider `CC[C@H](C)[C@H](NC(=O)[C@@H]1CCCN1C(=O)[C@@H](NC(=O)[C@@H](N)Cc1ccccc1)C(C)C)C(=O)N[C@@H](Cc1ccccc1)C(=O)N[C@H](C(=O)N[C@@H](Cc1ccc(O)cc1)C(=O)NCC(=O)N[C@@H](CCC(=O)O)C(=O)N[C@@H](CC(C)C)C(=O)N[C@@H](CCC(N)=O)C(=O)N[C@@H](CCCNC(=N)N)C(=O)N[C@@H](CCSC)C(=O)N[C@@H](CCC(N)=O)C(=O)N[C@@H](CCC(=O)O)C(=O)N[C@@H](CCCCN)C(=O)N[C@@H](CCC(=O)O)C(=O)N[C@@H](CCCNC(=N)N)C(=O)N[C@@H](CC(N)=O)C(=O)N[C@@H](CCCCN)C(=O)NCC(=O)N[C@@H](CCC(N)=O)C(=O)O)[C@@H](C)O` [[^125I]-motilin, [^125I]-Motilin, reference compound], for which binding (previously determined during membrane characterization) was characterised by a dissociation constant (Kd) of 0.16 nM.
